This is an account of results in ChEMBL document CHEMBL1201862, “PubChem BioAssay data set” (2004).

Assay [1] has as its target T1, Endoribonuclease toxin MazF (Escherichia coli K-12, UniProt P0AE70).
T1 sequence (P0AE70 whole entry): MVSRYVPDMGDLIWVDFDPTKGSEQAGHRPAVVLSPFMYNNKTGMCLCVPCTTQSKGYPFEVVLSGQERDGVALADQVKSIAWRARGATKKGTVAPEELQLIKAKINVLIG
Description: MazF toxin RNase activators, dose response, biochemical, fluorescence, single-stranded RNA substrate, uHTS hits (AID 588481). The class given is functional.

In assay [2] the target is T1, Endoribonuclease toxin MazF. Description: fluorescent RNA oligo signal without MazF, dose response, counter-screen for MazEF activator project, biochemical, fluorescence, single-stranded RNase substrate (AID 588502). The class given is functional. A general note: A counterscreen serves to expose hits that act by an unwanted route or on another target.
Assay [3] is described as follows: NIH-3T3 fibroblast cytotoxicity, dose response, cytotoxicity control, cell-based, fluorescence, Alamar Blue, secondary assay (AID 2327).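 Further: NIH-3T3 mouse fibroblasts cultured with fluconazole at 8 µg/mL.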 It is filed as functional. (Alamar Blue is a resazurin reagent that responds to reducing activity.)
Assay [4] in a line: C. albicans growth with fluconazole, confirmation, fluorescence, retest (AID 2467). The class given is functional, cell-based.
Assay [5] addresses T2, Serine/threonine-protein phosphatase (Candida dubliniensis (strain CD36 / CBS 7987 / NCPF 3949 / NRRLY-17841) (Yeast), UniProt B9W6M3).
T2 sequence (B9W6M3 whole entry): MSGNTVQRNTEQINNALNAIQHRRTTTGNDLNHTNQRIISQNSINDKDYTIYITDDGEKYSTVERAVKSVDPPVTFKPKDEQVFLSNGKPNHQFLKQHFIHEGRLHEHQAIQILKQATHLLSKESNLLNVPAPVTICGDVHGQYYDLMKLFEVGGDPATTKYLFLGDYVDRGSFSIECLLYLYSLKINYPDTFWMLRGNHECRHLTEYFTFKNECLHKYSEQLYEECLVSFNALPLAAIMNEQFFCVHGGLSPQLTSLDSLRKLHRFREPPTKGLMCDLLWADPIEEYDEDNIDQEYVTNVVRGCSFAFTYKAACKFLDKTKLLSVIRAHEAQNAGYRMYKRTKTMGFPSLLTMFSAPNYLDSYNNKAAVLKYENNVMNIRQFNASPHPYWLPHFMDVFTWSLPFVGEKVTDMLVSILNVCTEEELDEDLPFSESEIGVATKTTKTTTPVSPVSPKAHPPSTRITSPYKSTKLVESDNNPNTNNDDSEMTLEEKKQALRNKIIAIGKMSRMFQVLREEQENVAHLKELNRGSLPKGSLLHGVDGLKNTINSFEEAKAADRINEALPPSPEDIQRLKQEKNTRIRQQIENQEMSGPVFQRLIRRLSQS
Description: calcineurin pathway inhibitors in yeast reporter, dose response, S. cerevisiae, CDRE-lacZ, luminescence, secondary (AID 2388).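 Further: yeast reporter cells carrying a calcineurin-responsive lacZ construct stimulated with calcium chloride; luminescent beta-galactosidase reporter signal in whole cells rather than isolated phosphatase activity; potency for inhibition where a drop in reporter signal means calcineurin blockade.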 The class given is functional, cell-based.

Assay [6] deals with ATP-dependent molecular chaperone HSP82 (Candida albicans (strain WO-1) (Yeast), UniProt C4YTQ8). Description: loss of DOC-induced GRE-beta-galactosidase reporter signal, dose response, Hsp90 inhibitor project, S. cerevisiae, luminescence (AID 2400).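 Further: beta-galactosidase luminescence from glucocorticoid response element reporter as proxy for Hsp90 function; inhibitor potency where signal loss means Hsp90 inhibition.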 The class given is functional, cell-based.
ATP-dependent molecular chaperone HSP82, sequence (C4YTQ8 whole entry): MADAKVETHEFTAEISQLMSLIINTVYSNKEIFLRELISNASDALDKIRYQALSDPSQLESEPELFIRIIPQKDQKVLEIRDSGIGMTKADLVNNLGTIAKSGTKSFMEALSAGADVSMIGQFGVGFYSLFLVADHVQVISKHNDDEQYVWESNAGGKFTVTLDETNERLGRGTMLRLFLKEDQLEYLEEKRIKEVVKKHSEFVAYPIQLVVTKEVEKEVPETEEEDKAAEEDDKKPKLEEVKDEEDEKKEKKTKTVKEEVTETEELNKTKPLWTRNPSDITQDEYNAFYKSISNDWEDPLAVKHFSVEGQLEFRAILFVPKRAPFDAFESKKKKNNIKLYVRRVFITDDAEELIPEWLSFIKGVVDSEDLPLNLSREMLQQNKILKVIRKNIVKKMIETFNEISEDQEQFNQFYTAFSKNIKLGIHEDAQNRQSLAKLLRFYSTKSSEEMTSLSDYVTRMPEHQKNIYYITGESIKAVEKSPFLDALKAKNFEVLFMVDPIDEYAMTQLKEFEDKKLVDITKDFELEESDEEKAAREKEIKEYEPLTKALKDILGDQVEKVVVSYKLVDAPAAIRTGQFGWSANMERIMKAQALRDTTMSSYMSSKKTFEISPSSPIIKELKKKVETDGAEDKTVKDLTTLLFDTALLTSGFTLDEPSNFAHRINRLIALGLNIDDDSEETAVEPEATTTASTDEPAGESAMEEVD
The target in assay [7] is T3, Apoptotic protease-activating factor 1 (Homo sapiens, UniProt O14727).
T3 sequence (O14727 whole entry): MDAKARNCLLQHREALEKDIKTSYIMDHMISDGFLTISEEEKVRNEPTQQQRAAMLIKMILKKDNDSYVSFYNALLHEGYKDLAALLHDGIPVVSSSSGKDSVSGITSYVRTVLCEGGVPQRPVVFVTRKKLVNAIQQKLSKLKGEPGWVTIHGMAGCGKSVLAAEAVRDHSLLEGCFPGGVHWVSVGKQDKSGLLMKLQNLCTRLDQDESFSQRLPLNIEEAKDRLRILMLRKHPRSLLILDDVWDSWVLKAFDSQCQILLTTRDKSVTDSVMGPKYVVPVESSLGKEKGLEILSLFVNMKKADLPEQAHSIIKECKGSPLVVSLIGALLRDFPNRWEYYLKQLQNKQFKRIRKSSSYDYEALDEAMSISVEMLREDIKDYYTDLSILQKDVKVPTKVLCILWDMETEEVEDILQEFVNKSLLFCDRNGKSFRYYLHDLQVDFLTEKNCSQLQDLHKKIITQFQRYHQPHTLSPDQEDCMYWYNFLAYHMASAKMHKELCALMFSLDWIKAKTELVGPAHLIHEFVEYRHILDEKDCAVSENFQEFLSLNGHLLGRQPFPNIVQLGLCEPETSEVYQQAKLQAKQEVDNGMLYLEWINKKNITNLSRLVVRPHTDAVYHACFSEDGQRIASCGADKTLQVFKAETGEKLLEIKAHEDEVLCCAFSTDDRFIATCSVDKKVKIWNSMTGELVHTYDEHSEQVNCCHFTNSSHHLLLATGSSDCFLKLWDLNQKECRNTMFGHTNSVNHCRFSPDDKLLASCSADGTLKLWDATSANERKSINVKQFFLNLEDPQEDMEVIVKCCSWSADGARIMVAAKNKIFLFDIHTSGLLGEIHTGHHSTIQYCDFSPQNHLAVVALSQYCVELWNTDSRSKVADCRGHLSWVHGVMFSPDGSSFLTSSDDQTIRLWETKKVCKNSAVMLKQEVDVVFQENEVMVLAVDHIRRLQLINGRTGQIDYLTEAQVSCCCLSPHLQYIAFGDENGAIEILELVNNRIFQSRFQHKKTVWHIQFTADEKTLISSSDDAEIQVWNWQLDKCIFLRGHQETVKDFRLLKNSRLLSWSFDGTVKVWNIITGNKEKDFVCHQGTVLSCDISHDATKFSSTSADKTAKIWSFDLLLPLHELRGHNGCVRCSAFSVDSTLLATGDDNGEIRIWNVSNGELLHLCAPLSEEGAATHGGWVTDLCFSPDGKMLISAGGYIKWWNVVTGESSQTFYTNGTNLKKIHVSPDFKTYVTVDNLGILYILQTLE
The class given is functional.

A further assay concerns P388/ADR. Description: cells. It is filed as functional. The following applies: Mus musculus.
For another assay, the system named is SN12K1. Description: cells. The class given is functional. Particulars: Homo sapiens.
The test system of the next assay is P388. Description: cells. The following applies: Mus musculus. The class given is functional.
Assay [8] deals with T4, Sentrin-specific protease 8 (Homo sapiens, UniProt Q96LD8).
T4 sequence (Q96LD8 whole entry): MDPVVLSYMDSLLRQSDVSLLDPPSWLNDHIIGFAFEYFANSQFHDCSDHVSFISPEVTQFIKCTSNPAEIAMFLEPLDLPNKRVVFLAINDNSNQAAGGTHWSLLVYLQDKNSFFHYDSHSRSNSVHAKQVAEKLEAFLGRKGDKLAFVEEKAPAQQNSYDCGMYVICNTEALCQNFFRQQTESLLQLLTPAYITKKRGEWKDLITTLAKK
The class given is functional.

The target in assay [9] is T4, Sentrin-specific protease 8. It is filed as functional. This is another data set of the same source.
A further assay deals with T5, Caspase-6 (Homo sapiens, UniProt P55212).
T5 sequence (P55212 whole entry): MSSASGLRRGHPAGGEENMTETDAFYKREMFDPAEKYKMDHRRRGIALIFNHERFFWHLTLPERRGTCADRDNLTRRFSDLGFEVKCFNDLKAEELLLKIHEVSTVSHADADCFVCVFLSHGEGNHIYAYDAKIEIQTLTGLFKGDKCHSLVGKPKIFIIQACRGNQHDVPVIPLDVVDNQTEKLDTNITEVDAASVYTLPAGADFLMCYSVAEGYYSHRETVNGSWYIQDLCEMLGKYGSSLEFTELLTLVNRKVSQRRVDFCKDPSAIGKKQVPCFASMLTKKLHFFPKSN
Description: human caspase-6 inhibitors, dose response, biochemical, VEID-R110 fluorescence, cherry-pick (AID 720632).

Assay [10] can be described thus: Luminescence Cell-Based Dose Confirmation HTS to Identify Activators of 5'UTR Stem-Loop Driven Alpha-Synuclein mRNA Translation in H4 Neuroglioblastoma Cells. [Related pubchem assays: 1829 (Project Summary), 1814 (Primary HTS)]. The class given is functional.
Assay [11] can be described thus: Luminescence Cell-Based Dose Response HTS to Identify Activators of Luciferase Translation or Activity in H4 […] Cells. [Related pubchem assays: 1829 (Project Summary), 1814 (Primary HTS)]. It is filed as functional.
Assay [12] has as its system H4. Description: Luminescence Cell-Based Dose Response HTS to Identify Activators of 5'UTR Stem-Loop Driven Prion Protein mRNA Translation in H4 Neuroglioblastoma Cells. [Related pubchem assays: 1829 (Project Summary), 1814 (Primary HTS)]. Particulars: Homo sapiens. It is filed as functional.
Assay [13] is described as follows: HEp-2 cell cytotoxicity, dose response, cytotoxicity control for RSV inhibitor project, HTS (AID 2410). The following applies: human respiratory syncytial virus. The class given is functional.
In assay [14] the test system is Vero. Description: cells. Particulars: Chlorocebus sabaeus. The class given is functional, cell-based.
In assay [15] the target is Dual specificity tyrosine-phosphorylation-regulated kinase 1A (Rattus norvegicus, UniProt Q63470). The class given is biochemical, Homo sapiens.
The nature of assay [16]: cytotoxicity in HEK-293T cells, dose response, cytotoxicity control for TCR NF-kB inhibitor project, luminescence, T-cell screen hits (AID 489026).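 Further: cells exposed to compound about 14 hours before the viability readout.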 It is filed as functional, cell-based.
The test system of assay [17] is H4. Description: Inhibitors of Prion Protein 5' UTR mRNA Measured in Cell-Based System Using Plate Reader - 2078-01_Inhibitor_Dose_DryPowder_Activity. [Related pubchem assays (depositor defined):AID488894]. It is filed as functional. Particulars: Homo sapiens.
A short description of assay [18]: inhibitors of firefly luciferase expression or activity, dose response, H4 neuroglioma cells, luminescence (AID 1990). It is filed as functional, cell-based.
Assay [19] is described as follows: Luminescence Cell-Based Dose Response HTS to Identify Inhibitors of 5'UTR Stem-Loop Driven Prion Protein mRNA Translation in H4 Neuroglioblastoma Cells. [Related pubchem assays: 1827 (Project Summary), 1813 (Primary HTS)]. The class given is functional.
A short description of assay [20]: inhibitors of SNCA 5'UTR-driven reporter translation, confirmation, H4 neuroglioma cells, luminescence (AID 1988). It is filed as functional, cell-based.
The target of assay [21] is T6, Ubiquitin-conjugating enzyme E2 N (Homo sapiens, UniProt P61088).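 Further: Dose-response confirmation in a TR-FRET assay detecting UBC13-driven polyubiquitin chain formation, inhibition measured.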
T6 sequence (P61088 whole entry): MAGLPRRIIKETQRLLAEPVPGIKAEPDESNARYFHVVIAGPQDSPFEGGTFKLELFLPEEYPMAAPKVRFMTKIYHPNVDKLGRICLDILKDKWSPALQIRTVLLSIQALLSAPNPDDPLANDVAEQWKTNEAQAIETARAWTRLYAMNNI
It is filed as functional.

Assay [22] has as its system Vero. Description: cells. The class given is functional. Particulars: Chlorocebus sabaeus.

Structures are written as SMILES. Calls of active or inactive are those of the source. Where only a bound is given, the exact number is not on record here.

`N#C/C(=C\c1cn(-c2ccccc2)nc1-c1cc2ccccc2o1)c1nc2ccccc2[nH]1`: the EC50 (commonly the midpoint of the concentration-response curve) is > 99 µM (inactive) in [1] and 7.03 µM (active) in assay [2].
Consider `O=C(Nc1nnc(SCc2ccc(Cl)cc2)s1)c1cnccn1`, for which the EC50 in assay [3] was > 160 µM (inactive); in [4], 0.57 µM (active); in assay [5], > 180 µM (inactive); in assay [6], 24.4 µM (active).
Regarding `CC(C)N(Cc1cc2ccccc2nc1O)C(=O)C1CCCCC1`, in [7], the IC50 (usually the concentration that gives 50% inhibition) is 13.6 µM (active).
Turning to `Cn1c(=O)[nH]c2nncnc2c1=O`, the IC50 in assay [7] is 15.4 µM (active); in assay [8], 1.62 µM (active); in assay [9], 2.08 µM (active). The GI50 (usually the concentration giving 50% growth inhibition) in the assay on P388/ADR was 213 µM (inactive); with SN12K1 it was 65.8 µM (inactive); in the assay with P388 it was 25.8 µM (inactive). The AC50 – broadly, the concentration at which the activity in the assay is half-maximal – at Caspase-6 is 7.06 µM (active).
Consider `COc1cc(/C=C2/C(=O)N(C)C(=S)N2C)ccc1OCc1cccc(F)c1`, for which the concentration for a half-maximal effect (EC50) in [10] was > 120 µM (not active); in [11], > 120 µM (not active); in the assay on H4 [12], 4.24 µM (active); in [1] it was > 99 µM (inactive); in assay [2] it was > 99 µM (inactive).
Take `O=C(Cc1c[nH]c2ccccc12)Nc1nnc(C2CC2)s1`: in [13], the CC50 – broadly, the concentration that lowers cell viability or growth by half – is 21.6 µM (active). In addition, the values for the 50% inhibitory concentration (IC50) in the assay with Vero [14] and in “cells” were 16.6 µM (active) and 39.1 µM (active), respectively.
As for `c1cncc(-c2ccc3[nH]ccc3c2)c1`, the AC50 in assay [15] was 6.97 µM (active).
`C=CCn1c(SCc2c(C)noc2C)nc2ccccc2c1=O`: the IC50 in [16] is > 80 µM (inactive). The AC50 in the assay on H4 [17] was 0.574 µM (active).
For `c1cncc(-c2csc(-c3cccnc3)n2)c1`, in assay [15], the AC50 is 0.676 µM (active).
As to `CCCOc1ccc(C(=O)NNC(=S)NC(C)=O)cc1`, the EC50 was > 160 µM (inactive) in assay [3]; 14.2 µM (active) in assay [18]; 14.2 µM (active) in [19]; 9.77 µM (active) in [20]; 0.372 µM (active) in assay [4]; > 180 µM (inactive) in [5]. Also, the EC50 in assay [6] is > 160 µM (inactive). For the same compound, the IC50 in assay [21] was > 20 µM (inactive); in the assay with Vero [14], 23.6 µM (active). Besides, in the assay on Vero [22], the CC50 was > 25 µM (active).
